US20130053357A1, “SKIN IRRITATION SUPPRESSANT AND TRANSDERMAL PREPARATION” (HISAMITSU PHARMACEUTICAL CO., INC., priority 2010, published 2013)
Where two headings read alike, the source gives them in different places.

Legend:
[1] = test system: human three-dimensional culture epidermal model (LabCyte EPI-MODEL); experiment: Suppression by cholesterol of skin irritation mediator production induced by asenapine and LADA in a human epidermal cell (Experiment 6); format: cell-based
Description: (§1) A human three-dimensional epidermal culture model obtained by multilayer-culturing a human normal epidermal cell (LabCyte EPI-MODEL, manufactured by Japan Tissue Engineering Co., Ltd.) was used. LabCyte is a cultured skin cultured in a transwell. For the experiment, LabCyte was used with the transwell.
(§2) The experiment was conducted as below. First, LabCyte was put into a 24-well assay plate. Then, 1 ml of assay medium (Japan Tissue Engineering Co., Ltd.) was added so that it was brought into contact with a bottom surface of the cultured skin in each well of the 24-well assay plate, and was pre-cultured in an incubator with 5% of carbon dioxide concentration at 37° C. for 1 hour.
(§3) The test solutions of each group were added to the cells, the culture solutions incubated for 48 hours were collected, and a production amount of each skin irritation mediator was measured. The skin irritation mediator was measured by using a commercially available ELISA kit (manufactured by R&D Systems, Inc.). A relative production amount of the skin irritation mediator in each test substance was calculated as below, when the production amount of the skin irritation mediator in the PMA Only Group was set to 100.
Cholesterol was used as a test substance. Asenapine and lauric acid diethanolamide (LADA) were used as the cutaneous irritants.
Tests were conducted by the following group composition. • Solvent Group: A group including only vehicle. Olive oil was used as a vehicle. • Skin Irritant Only Group: A group with addition of only cutaneous irritant dispersed in a vehicle, as a test solution. The concentration of asenapine maleate to be added was 0.6% (asenapine group), and that of LADA was 0.03% (LADA group). • Skin Irritant Plus Cholesterol Group: A group with addition of the drug and 1% by mass of cholesterol which were dispersed in a vehicle, as a test solution.
The experiment was conducted while other conditions were set in the same manner as Experiment 1.

[2] = test system: croton oil-induced mouse ear swelling; experiment: Suppression of croton oil-induced mouse ear swelling reaction (Experiment 3); format: in vivo
Description: <Suppression of Croton Oil-Induced Mouse Ear Swelling Reaction by the Test Substances>
Suppression of mouse ear swelling was examined through the use of croton oil (Wako Pure Chemical Industries, Ltd.) as a swelling inducer. A 7-week-old ddY female mouse (SPF) was subjected to an experiment. As test substances, cholesterol, glycyrrhizin, glycyrrhetinic acid, squalene, ergosterol, squalane and lanosterol were used. As a vehicle, acetone (Wako Pure Chemical Industries, Ltd.) was used.
Experiments were conducted by the following group composition. • Positive Control Group: A group which received only the vehicle as a primary test solution, and one hour after, received a 2% croton oil solution as a secondary test solution. • Test Substance Group: A group in which only the vehicle was administered as a primary test solution, and one hour after, a 2% croton oil solution including 1% by mass of test substance was administered as a secondary test solution.
An inhibition ratio of ear swelling was calculated as below. In this test, a […] inflammation model is used to examine immediate swelling reactions. In accordance with the group composition, 25 μL of the primary test solution was uniformly coated on back sides of both ears in an etherize mouse, and one hour after, 25 μL of the secondary test solution was uniformly coated in accordance with the group composition. Prior to coating of the secondary test solution, a thickness of auricle was measured by DIAL […] GAUGE (OZAKI MFG CO., LTD.). Furthermore, the secondary test solution was administered, and 6 hours after, the auricular thickness was measured in the same way as mentioned above, and an increased amount of the auricular thickness was set by deducting the thickness measured prior to administration of the secondary test solution. The inhibition ratio of ear swelling was calculated as below.
Inhibition ratio of ear swelling (%)=(increased amount of auricular thickness in Test Substance Group−increased amount of auricular thickness in Negative Control Group)/(increased amount of auricular thickness in Positive Control Group−increased amount of auricular thickness in Negative Control Group)×100

[3] = test system: human three-dimensional culture epidermal model (LabCyte EPI-MODEL); experiment: Suppression by cholesterol of skin irritation mediator production induced by drugs in a human epidermal cell (Experiment 2); format: cell-based; details: 1% by mass of cholesterol; summary of Table 2
Description: as §1, §2, §3
Cholesterol was used as a test substance. The drugs shown in Table 2 were used as the cutaneous irritants.
Tests were conducted by the following group composition. • Drug Only Group: A group with addition of only the drug dispersed in a vehicle, as a test solution. Concentrations of the drugs are shown in Table 2. • Drug Plus Cholesterol Group: A group with addition of the drug and 1% by mass of cholesterol which were dispersed in a vehicle, as a test solution.
The experiment was conducted while other conditions were set in the same manner as in Experiment 1.

[4] = test system: human three-dimensional culture epidermal model (LabCyte EPI-MODEL); experiment: Production of skin irritation mediators induced by PMA in human three-dimensional epidermal culture model (Experiment 1); format: cell-based; details: for activity at 1 %: Homo sapiens, test substance 1 mass % with PMA in olive oil, 48 hours
Description: Changes in production amounts of skin irritation mediators by test substances were examined when cutaneous irritants were caused to act on a human three-dimensional culture epidermal model.
as §1
As test substances, there were used cholesterol (manufactured by Wako Pure Chemical Industries, Ltd.), β-sitosterol (manufactured by TAMA BIOCHEMICAL CO., LTD.), α-spinasterol (manufactured by ChromaDex, Inc.), ergosterol (manufactured by Wako Pure Chemical Industries, Ltd.), campesterol (manufactured by TAMA BIOCHEMICAL CO., LTD.), glycyrrhizin (manufactured by Wako Pure Chemical Industries, Ltd.), glycyrrhetinic acid (manufactured by Wako Pure Chemical Industries, Ltd.), ginsenoside (manufactured by Wako Pure Chemical Industries, Ltd.), squalene (manufactured by Wako Pure Chemical Industries, Ltd.), squalane (manufactured by Tokyo Chemical Industry Co., Ltd.) and lanosterol (manufactured by ChromaDex, Inc.), which are candidates of a skin irritation suppressant.
As skin irritants, Phorbol 12-Myristate 13-Acetate (PMA, manufactured by Wako Pure Chemical Industries, Ltd.) was used. In addition, as vehicle, olive oil (manufactured by Wako Pure Chemical Industries, Ltd.) was used.
Experiments were conducted by the following group composition. • PMA Only Group: A group with addition of only 0.00001 mol of PMA dispersed in a vehicle, as a test solution. • Test Substance Group: A group with addition of 0.00001 mol of PMA and the test substance which were dispersed in a vehicle, as a test solution.
as §2
Next, a cell survival rate was measured by the MTT method after causing the test solutions of each group to act. Specifically, 50 μL of the test solution of each group was added to the surface of the LabCyte after preculture, was cultured in the incubator with 5% of carbon dioxide concentration at 37° C. for 48 hours, then was transferred to the assay medium comprising 0.5 mg/ml of MTT reagent, and was cultured in the incubator with 5% of carbon oxide level at 37° C. for 3 hours. Then, LabCyte was immersed in 0.3 ml of an isopropanol solution, and the produced blue-purple formazan was extracted for 2 hours. After extraction, an absorbance at 570 nm was measured by a 96 microplate reader. The cell survival rate was calculated as below.
Cell survival rate (%)=(absorbance of Test Substance Group)/(absorbance of PMA Only Group)×100
Subsequently, a production amount of the skin irritation mediator at a test substance concentration with 80% or more of cell survival rate was measured. As skin irritation mediators, PGE2, IL-1α, IL-6, IL-8 were measured.
as §3
Relative production amount=(production amount of the mediator in Test Substance Group)/(production amount of the mediator in PMA Only Group)×100

[5] = test system: shaved back of the rabbit; details: in vivo
Description: <Examination of Reduction in Skin Irritation in a Rabbit by Cholesterol, −1>
A 19-week-old JW female rabbit was subjected to an experiment.
Subsequently, the transdermal preparation of each group was applied to a shaved back of the rabbit a single time for 24 hours. Erythema and swelling on the applied site were evaluated 1, 24 and 48 hours after peel-off of the transdermal preparation in accordance with the judgment standard of Draize et al. and an average value of the skin primary irritation index (PII) was calculated.

[6] = LADA 0.03% in olive oil, without or with 1% by mass of cholesterol

| Compound | Effect of cholesterol on skin irritation mediator production due to asenapine and LADA (in words) ([1]; 1% by mass of cholesterol, summary of Tables 5 and 6) | Inhibition Ratio Of Ear Swelling ([2]; ddY female mouse, 1% by mass of test substance in 2% croton oil solution, 25 μL on ears, auricular thickness 6 hours after) [%] | Effect on croton oil-induced mouse ear swelling reaction (in words) ([2]; summary of Table 3) | Effect of cholesterol on drug-induced production of the skin irritation mediator (in words) [3] | activity at 1 % ([4]; read-out: Relative Production Amount of Skin Irritation Mediator when Production Amount in PMA Only Group is Set to 100: IL-1α) [%] | activity at 1 % ([4]; read-out: Relative Production Amount of Skin Irritation Mediator when Production Amount in PMA Only Group is Set to 100: IL-6) [%] | activity at 1 % ([4]; read-out: Relative Production Amount of Skin Irritation Mediator when Production Amount in PMA Only Group is Set to 100: IL-8) [%] | activity at 1 % ([4]; read-out: Relative Production Amount of Skin Irritation Mediator when Production Amount in PMA Only Group is Set to 100: PGE2) [%] | Effect on skin irritation mediator production by PMA (in words) ([4]; summary of Table 1) | Skin primary irritation index (PII), average value [5] | Production Amount of Skin Irritation Mediator: IL-1α [1, 6] [pg/mL] | Production Amount of Skin Irritation Mediator: IL-6 [1, 6] [pg/mL] | Production Amount of Skin Irritation Mediator: IL-8 [1, 6] [pg/mL] | Production Amount of Skin Irritation Mediator: PGE2 [1, 6] [pg/mL] | Production Amount of Skin Irritation Mediator: TNFα [1, 6] [pg/mL] |
| --- | --- | --- | --- | --- | --- | --- | --- | --- | --- | --- | --- | --- | --- | --- | --- |
| CC(C)CCC[C@@H](C)[C@H]1CC[C@H]2[C@@H]3CC=C4C[C@@H](O)CC[C@]4(C)[C@H]3CC[C@]12C [Cholesterol, cholesterol] | exhibited effects of suppressing the skin irritation mediator production on skin irritation due to asenapine and LADA | 70.6 | suppress croton oil-induced mouse ear swelling reaction | exhibited effects of suppressing of production of the skin irritation mediator on a wide range of drugs | 50 | 0 | 65 | 17 | exhibited effects of suppressing the skin irritation mediator production by PMA | reduces skin irritation due to the drug | – | – | – | – | – |
| CCCCCCCCCCCC(=O)N(CCO)CCO [LADA, lauric acid diethanolamide] | – | – | – | – | – | – | – | – | – | – | 29.85 | 0.00 | 160.29 | 30.64 | 0.00 |
